Assay results as given in ChEMBL document CHEMBL4049425, “Fragment-Based, Structure-Enabled Discovery of Novel Pyridones and Pyridone Macrocycles as Potent Bromodomain and Extra-Terminal Domain (BET) Family Bromodomain Inhibitors” (J Med Chem, 2017).
Calls of active or inactive are those of the source. The calls are words filed in the database; no cut-off is given here.

Experiments:
[1] = tested on: MX1; experiment: Antiproliferative activity against human MX1 cells after 72 hrs by Cell Titer Glo assay; format: functional, cell-based; conditions: MX1, 72 h
[2] = biological target: T1, Bromodomain-containing protein 4 (Homo sapiens, UniProt O60885); experiment: Inhibition of human N-terminal His6-tagged BRD4 BD1-BD2 (57 to 550 residues) expressed in EScherichia coli BL21(DE3) after 1 hr by Alexa-647-conjugated probe based TR-FRET assay
[3] = biological target: T1, Bromodomain-containing protein 4; experiment: Inhibition of BRD4 in human NCI-H1299 cells after 24 hrs by Bright-Glo luciferase reporter gene assay; format: cell-based
[4] = tested on: Liver; experiment: Unbound intrinsic clearance in human liver microsomes; format: ADME, microsome
[5] = tested on: Liver; experiment: Unbound intrinsic clearance in mouse liver microsomes; format: ADME, microsome
[6] = tested on: Liver; experiment: Unbound intrinsic clearance in rat liver microsomes; format: ADME, microsome
[7] = Fraction unbound in mouse plasma at 1 uM after 4 hrs by LC-MS/MS analysis; format: ADME, cell-free
[8] = Permeability of the compound by PAMPA; format: physicochemical; conditions: read-out: permeability
[9] = tested on: Mus musculus; experiment: Unbound clearance in mouse at 1 mg/kg, iv or 1 mg/kg, po; format: ADME, organism-based; conditions: in vivo
[10] = tested on: Mus musculus; experiment: Unbound AUC in mouse at 1 mg/kg, po; format: ADME, organism-based; conditions: in vivo
[11] = tested on: Mus musculus; experiment: Fraction absorbed in portal vein of mouse at 1 mg/kg, iv or 1 mg/kg, po; format: ADME, organism-based; conditions: in vivo
[12] = Oral bioavailability in mouse at 1 mg/kg; format: ADME, organism-based; conditions: in vivo
[13] = Lipophilicity, log D of the compound; format: physicochemical; conditions: octanol/water
[14] = tested on: Rattus norvegicus; experiment: Unbound clearance in rat at 1 mg/kg, iv or 1 mg/kg, po; format: ADME, organism-based; conditions: in vivo
[15] = tested on: Rattus norvegicus; experiment: Unbound AUC in rat at 1 mg/kg, po; format: ADME, organism-based; conditions: in vivo
[16] = tested on: Rattus norvegicus; experiment: Fraction absorbed in portal vein of rat at 1 mg/kg, iv or 1 mg/kg, po; format: ADME, organism-based; conditions: in vivo
[17] = Oral bioavailability in rat at 1 mg/kg; format: ADME, organism-based; conditions: in vivo
[18] = Fraction unbound in rat plasma; format: ADME, cell-free
[19] = tested on: OPM-2; experiment: Antitumor activity against human OPM2 cells xenografted in SCID-Beige mouse assessed as tumor growth inhibition at 1 mg/kg, po qd for 21 days relative to control; format: functional; conditions: OPM-2, po, 504 h, read-out: TGI
[20] = tested on: Mus musculus; experiment: Toxicity in SCID-Beige mouse xenografted with human OPM2 cells assessed as weight loss at 1 mg/kg, po qd for 21 days (reference value: 2%); format: organism-based; conditions: in vivo, 504 h
[21] = tested on: OPM-2; experiment: Antiproliferative activity against human OPM2 cells; format: functional, cell-based
[22] = tested on: Mus musculus; experiment: Toxicity in SCID-Beige mouse xenografted with human OPM2 cells assessed as weight loss at 2 mg/kg, po qd for 21 days (reference value: 2%); format: organism-based; conditions: in vivo, 504 h
[23] = tested on: OPM-2; experiment: Antitumor activity against human OPM2 cells xenografted in SCID-Beige mouse assessed as tumor growth inhibition compound administered po qd for 21 days; format: functional, organism-based
[24] = tested on: OPM-2; experiment: Antitumor activity against human OPM2 cells xenografted in SCID-Beige mouse assessed as tumor growth inhibition at 2 mg/kg, po qd for 21 days relative to control; format: functional; conditions: OPM-2, po, 504 h, read-out: TGI
[25] = tested on: Plasma; experiment: Free plasma concentration required to reach in vitro EC50 for human OPM2 cells in SCID-Beige mouse xenografted with human OPM2 cells at 1 to 2 mg/kg, po
[26] = Fraction unbound in SCID-Beige mouse plasma xenografted with human OPM2 cells at 1 to 2 mg/kg, po; format: ADME, organism-based
[27] = tested on: Mus musculus; experiment: Time required to reach in vitro EC50 for human OPM2 cells in SCID-Beige mouse xenografted with human OPM2 cells at 2 mg/kg, po
[28] = tested on: Mus musculus; experiment: Unbound plasma clearance in mouse at 3 mg/kg, iv or 10 mg/kg, po; format: ADME, organism-based; conditions: in vivo
[29] = tested on: Mus musculus; experiment: Dose normalized fAUC in mouse at 3 mg/kg, iv or 10 mg/kg, po; format: ADME, organism-based; conditions: in vivo
[30] = tested on: Mus musculus; experiment: Fraction absorbed in portal vein of mouse at 3 mg/kg, iv or 10 mg/kg, po; format: ADME, organism-based; conditions: in vivo
[31] = Oral bioavailability in mouse at 10 mg/kg; format: ADME, organism-based; conditions: in vivo
[32] = tested on: OPM-2; experiment: Antitumor activity against human OPM2 cells xenografted in SCID-Beige mouse assessed as tumor growth inhibition at 3 mg/kg, po qd for 21 days relative to control; format: functional; conditions: OPM-2, po, 504 h, read-out: TGI
[33] = tested on: Mus musculus; experiment: Toxicity in SCID-Beige mouse xenografted with human OPM2 cells assessed as weight loss at 3 mg/kg, po qd for 21 days (reference value: 2%); format: organism-based; conditions: in vivo, 504 h
[34] = Fraction unbound in SCID-Beige mouse plasma xenografted with human OPM2 cells at 1 to 3 mg/kg, po; format: ADME, organism-based
[35] = tested on: Plasma; experiment: Free plasma concentration required to reach in vitro EC50 for human OPM2 cells in SCID-Beige mouse xenografted with human OPM2 cells at 1 to 3 mg/kg, po
[36] = tested on: Mus musculus; experiment: Time required to reach in vitro EC50 for human OPM2 cells in SCID-Beige mouse xenografted with human OPM2 cells at 3 mg/kg, po
[37] = tested on: OPM-2; experiment: Antitumor activity against human OPM2 cells xenografted in SCID-Beige mouse assessed as tumor growth inhibition at 1 to 3 mg/kg, po qd measured after 21 days; format: functional, organism-based

Row | Compound | EC50 [1] [µM] | Ki [2] [µM] | EC50 [3] [µM] | CL free [4] [mL/min/kg] | CL free [5] [mL/min/kg] | CL free [6] [mL/min/kg] | fraction unbound at 4 h, 1 µM [7] | Papp [8] [×10⁻⁶ cm/s] | CL free [9] [mL/min/kg] | fAUC [10] [ng·h/mL] | FaFg [11] | bioavailability [12] [%] | logD [13] | CL free [14] [mL/min/kg] | fAUC [15] [ng·h/mL] | FaFg [16] | bioavailability [17] [%] | fraction unbound [18] | inhibition in vivo at 1 mg/kg [19] [%] | Activity [20] [%] | further results
1 | CCS(=O)(=O)Nc1ccc2c(c1)-c1cn(C)c(=O)cc1OCCCCc1cc(Cl)ccc1O2 | 0.0057 | 0.0015 | 0.0051 | < 217 | 2330 | 433 | 0.01 | 2.2 | 417 | 16 | 0.41 | 39 | 2.8 to 4.3 | 2330 | 1 | 0.44 | 16 | 0.02 |  |  | 
2 | CCS(=O)(=O)c1cnc2c(c1)-c1cn(C)c(=O)cc1OCCCCc1cc(Cl)ccc1O2 | 0.033 | 0.0089 | 0.034 | 58.3 | 267 | 73.3 | 0.04 | 15 | 140 | 100 | 0.9 | 84 | 2.8 to 4.3 | 233 | 69 | 1 | 95 | 0.09 | 73 | 4 | EC50 [21]: 0.012 µM; Activity [22]: 4%; TGI [23]: Dose-dependent effect; inhibition in vivo at 2 mg/kg [24]: 85%; Cp(f) [25]: 0.3 µM; fraction unbound [26]: 0.04; Time [27]: >12 h
3 | Cn1cc2c(cc1=O)OCCCCc1cc(Cl)ccc1Oc1ncc(CS(C)(=O)=O)cc1-2 | 0.024 | 0.011 | 0.024 | 56.7 | 158 | 107 | 0.12 | 12 | 88.3 | 85 | 0.51 | 45 | 2.8 to 4.3 | 142 | 2 | 0.42 | 2.8 | 0.24 |  |  | 
4 | CCS(=O)(=O)Nc1ccc(Oc2ccc(F)cc2F)c(-c2cn(C)c(=O)cc2OC)c1 | 0.047 | 0.013 | 0.056 | 76.7 | 267 | 250 | 0.14 |  |  |  |  |  | 2.8 to 4.3 |  |  |  |  |  | 66 | 6 | CL free [28]: 183 mL/min/kg; fAUC/dose [29]: 0.081 µg·h/mL per mg/kg; FaFg [30]: 0.89; bioavailability [31]: 63%; inhibition in vivo at 3 mg/kg [32]: 73%; Activity [33]: 5%; EC50 [21]: 0.023 µM; fraction unbound [34]: 0.14; Cp(f) [35]: 0.16 µM; Time [36]: 6.5 h; TGI [37]: inactive
